{"source": "paper PMC6882468", "about": "(Journal of Enzyme Inhibition and Medicinal Chemistry, 2019)", "key": {"[1]": {"test_system": "DNFB-induced mouse model of allergic contact dermatitis", "test": "DNFB-induced mouse model of allergic contact dermatitis (ear swelling)", "format": "in vivo, Male ICR mice", "method": "Male ICR mice (20 ± 2 g) were obtained from the Experimental Animal Centre of Anhui Medical University (Hefei, China). The mice reared in a pathogen-free setting (23 ± 2 °C, 55 ± 5% humidity) with free access to water and pelleted food throughout the experimental cycle. All experimental procedures performed in accordance with guide for the Care and Use of Laboratory Animals (National Research Council, 1996) and were approved by the Experimental Animal Ethics Committee of Anhui University of Chinese Medicine (Hefei, China). After 7 days acclimatisation, the mice were randomly divided into control group, ACD model group, dexamethasone positive control group and 20 compound groups, six in each group. The control group and the model group were given the same dose of the vehicle, the positive control group was given dexamethasone 0.5 mg/kg, and the test compound groups were given compound 5 mg/kg, all of which were given by intragastric administration and were administered once a day for 6 days. Except for the control group, the 50 µL of 1% DNFB (in acetone/olive oil 4:1) was administered to the stripped epidermis, and repeated the next day. After 6 days of drug treatment, 10 µL of 1% DNFB acetone olive oil solution was applied on both sides of the right ear to stimulate inflammation, and equivalent acetone olive oil solution was applied on the left ear for comparison. […] Calculation was carried out according to the following equations. Swelling degree (mg) = MR – ML Inhibitory rate of ear swelling (%)=((MR – ML) model – (MR – ML) treated)/(MR – ML) model ×100% MR=Average weight of the right ear slices;ML= Average weight of the left ear slices […] Dexamethasone (DEX) at a p.o. dose of 0.5 mg/kg was employed as the positive control. After the mice were sacrificed, the swelling degree and inhibition rate were calculated by weighing the same part of both ears."}, "[2]": {"test_system": "RAW 264.7 cells", "test": "Cell viability assay (MTT)", "format": "cell-based, Murine", "settings": "RAW264.7 cells, concentrations ranging from 5 to 50 µM, 24 h", "method": "Murine RAW 264.7 macrophages were obtained from the American Type Culture Collection (ATCC, USA). The cells were incubated in DMEM media supplemented with 10% FBS, 100 U/mL penicillin and […] streptomycin at 37 °C with 5% CO2. Cell viability was assessed using the MTT assay. RAW 264.7 cells were inoculated in 96-well plate at a density of 1.0 × 10^5 cells per well. After incubated for 24 h, the cells were treated with various concentrations of the compound. After an additional 24-h incubation, 20 µL of 0.5 mg/mL MTT reagent was added to wells and incubated for another 4 h. After 4 h, cell culture media was removed and DMOS was added into each well, and then, the optical density was measured at 570 nm. The IC50 values were determined by GraphPad Prism 6."}, "[3]": {"test_system": "NO production in RAW 264.7 macrophages", "test": "Measurement of LPS-induced NO production (Griess)", "format": "cell-based, Murine", "settings": "RAW264.7, 2 h pre-treatment (0–20 µM), LPS 200 ng/mL 24 h", "method": "Murine RAW 264.7 macrophages were obtained from the American Type Culture Collection (ATCC, USA). The cells were incubated in DMEM media supplemented with 10% FBS, 100 U/mL penicillin and […] streptomycin at 37 °C with 5% CO2. The RAW 264.7 macrophages were inoculated at 96-well plates and were pre-treated with vehicle or 6n (0–20 µM dose range) for 2 h and then stimulated with LPS (200 ng/mL) for 24 h. NO concentration in the medium was determined using Griess reagent kit (Beyotime, China) at 540 nm with a microplate reader (MQX200, Bio-Tek, USA) and calculated the inhibition rate of NO."}, "[4]": {"test_system": "p38 phosphorylation in RAW264.7 cells", "test": "Western blot of LPS-induced p38 phosphorylation", "format": "cell-based, Murine", "settings": "RAW264.7, 5, 10, 20 μM, LPS 200 ng/mL", "method": "(§1) The cell in 96-well plates were treated as described above and then stimulated with LPS (200 ng/mL) for 24 h. The cells were harvested and lysed in an extraction lysis buffer (Beyotime Biotechnology, Shanghai, China) containing protease inhibitors. The protein concentration was determined using a BCA protein assay kit (Thermo Scientific, 23227). The whole cell lysates were separated by 10% sodium dodecyl sulphate-polyacrylamide gel electrophoresis and transferred to a nitrocellulose membrane. Each membrane was incubated with Tris-buffered saline (pH 7.6, containing 0.05% Tween-20 and 5% non-fat milk). The nitrocellulose membrane was incubated with the primary antibody against p-JNK1/2, JNK1/2, p-p38, p38, p-ERK1/2, ERK1/2, IκBa, NF-κB p65, COX-2, iNOS or β-Actin (Abcam, Cambridge, UK). Immunoreactive bands were detected by incubating with horseradish peroxidase-conjugated secondary antibodies, and visualised using enhanced chemiluminescence reagents (Bio-Rad, Hercules, CA).\n(§2) Figure 7. Compound 6n inhibited LPS-induced MAPK-signalling activation in RAW264.7 cells. RAW264.7 cells were co-incubated with 6n (5, 10, 20 μM) and LPS (200 ng/mL) for 30 min. The levels of p38, JNK, ERK1/2 and their phosphorylated forms were analysed using western blot."}, "[5]": {"test_system": "ERK phosphorylation in RAW264.7 cells", "test": "Western blot of LPS-induced ERK phosphorylation", "format": "cell-based, Murine", "settings": "RAW264.7, 5, 10, 20 μM, LPS 200 ng/mL", "method": "as §1, §2"}, "[6]": {"target": "T1, COX-2 (Homo sapiens, UniProt P35354)", "T1 sequence (P35354 18-604)": "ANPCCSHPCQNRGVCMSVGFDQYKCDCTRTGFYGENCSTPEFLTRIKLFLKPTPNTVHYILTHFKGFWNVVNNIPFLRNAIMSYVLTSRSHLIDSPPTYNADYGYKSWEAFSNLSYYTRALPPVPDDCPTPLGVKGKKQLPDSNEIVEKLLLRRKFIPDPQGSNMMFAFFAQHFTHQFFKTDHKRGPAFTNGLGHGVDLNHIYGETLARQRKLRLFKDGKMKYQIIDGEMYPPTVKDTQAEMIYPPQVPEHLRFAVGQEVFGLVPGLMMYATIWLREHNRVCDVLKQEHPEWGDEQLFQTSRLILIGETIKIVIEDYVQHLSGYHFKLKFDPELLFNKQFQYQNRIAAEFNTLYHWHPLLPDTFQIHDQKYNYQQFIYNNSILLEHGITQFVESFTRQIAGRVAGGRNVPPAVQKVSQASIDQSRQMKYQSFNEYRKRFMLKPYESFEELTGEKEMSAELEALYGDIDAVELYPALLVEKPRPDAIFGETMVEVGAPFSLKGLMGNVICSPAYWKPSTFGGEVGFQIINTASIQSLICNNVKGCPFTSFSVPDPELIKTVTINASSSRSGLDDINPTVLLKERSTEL", "test": "COX-2 inhibition assay in vitro (COX Inhibitor Screening Kit, fluorometric)", "procedure": "Simply, different concentrations of the test compound solution were added to the mixed solution containing COX-1/COX-2 enzyme (10 µL) and Assay Buffer (960 µL, 0.1 M Tris-HCl pH 8.0 containing 5 µM EDTA and 2 µM phenol). […] The IC50 values were calculated as described above."}}, "data": [{"smiles": "COc1ccccc1CN1CCN(C(=O)c2ccccc2C(C)=O)CC1", "note": "[Compound 6n, 1–(2-(4–(2-Methoxybenzyl)piperazine-1-carbonyl)phenyl)ethan-1-one]", "values": [{"measurement": "Swelling degree", "setting": "[1]; mice, 5 mg/kg intragastric once a day for 6 days, ear slices weighed 24 h after DNFB challenge, Mean ± SD, n = 6", "result": "8.8 ± 3.2", "unit": "mg"}, {"measurement": "Inhibition (%) of ear swelling", "setting": "[1]; mice, 5 mg/kg intragastric once a day for 6 days, vs model group", "result": 46.3, "unit": "%"}, {"measurement": "in vivo inhibitory activity, in words", "setting": "[1]; p.o. 5 mg/kg, p < 0.01", "result": "significant inhibitory activity"}, {"measurement": "cytotoxicity", "setting": "[2]", "result": "no significant toxicity"}, {"measurement": "LPS-induced NO production", "setting": "[3]", "result": "reduced LPS-induced NO production in a dose-dependent manner"}, {"measurement": "p38 phosphorylation", "setting": "[4]", "result": "significantly lower"}, {"measurement": "phosphorylation of ERK", "setting": "[5]", "result": "no obvious effect"}, {"measurement": "IC50", "setting": "[6]", "result": "36 ± 4", "unit": "nM"}, {"measurement": "SI (COX-1/COX-2)", "setting": "[6]; IC50 (COX-1)/IC50 (COX-2)", "result": 349.72}]}]}
